Marks after values point to notes of the source that are not given here.
Columns and labels:
[1] = Thermal stability of compounds at 60° C. (HPLC content of raw material and 2% premix); format: physicochemical; details: for Detection result of the content of test sample (%) Day 5: Day 5, relative to Day 0; for Detection result of the content of test sample (%) Day 10: Day 10, relative to Day 0
Method: The variations of the contents of the main ingredient of the aspartic acid derivative raw material and the main ingredient of a premix containing 2% mass fraction of the aspartic acid derivative (hereinafter referred to as 2% premix) over time were investigated under the conditions of stability test at 60° C.
Experimental apparatus: drug stability incubator, Waters high-performance liquid chromatograph (HPLC), etc.
Test samples: N-carbamoyl-DL-aspartic acid (compound 1), diethyl N-carbamoyl-DL-aspartate (compound 2), Sodium N-carbamoyl-DL-aspartate (compound 3), Calcium N-carbamoyl-DL-aspartate (compound 4), Zinc N-carbamoyl-DL-aspartate (compound 5), Copper N-carbamoyl-DL-aspartate (compound 6), Iron N-carbamoyl-DL-aspartate (compound 7), N-glycyl-DL-aspartic acid (compound 8), N-(4-aminobutyryl)-DL-aspartic acid (compound 9), N-(10-aminodecanoyl)-DL-aspartic acid (compound 10), N-(14-aminomyristoyl)-DL-aspartic acid (compound 11).
Preparation of standard solution: 50 mg of the test sample raw material was ultrasonically dissolved in 50 mL of water to obtain a working reserve solution. An appropriate amount of the working reserve solution was taken and diluted with water respectively to concentrations of 125 ppm, 250 ppm, 500 ppm, and 1000 ppm for HPLC testing. It was checked whether the sample concentrations are in a linear relationship with the peak area response values in HPLC, and a standard curve was established.
Preparation of test solution: An appropriate amount of the test sample raw material and an appropriate amount of a premix containing 2% mass fraction of the test sample (hereinafter referred to as 2% premix) were separately ultrasonically dissolved in an appropriate amount of water to form a 1000 ppm solution, which is filtered through a 0.22 µm filter membrane and then analyzed by HPLC.
HPLC analysis conditions: chromatographic column: Waters C18 column (250 mm×4.6 mm, 5 μm); mobile phase: 0.05% phosphoric acid:methanol=95:5 (v:v) (raw material); 0.05% phosphoric acid: methanol (gradient elution); methanol: 5%→40% (0-15 min) curve 6, 40%→5% (15-16 min) curve 1, 5% (16-23 min) curve 1, (premix, feed); detection wavelength: 210 nm; column temperature: 25° C.; sample size: 20 μL; flow rate: 1 mL/min.
Test method: The test sample raw material and its 2% premix were placed in a culture plate, spread into a thin layer of <5 mm, and placed at 60° C. Samples were taken on the day 5 and ? day 10 for HPLC detection. Each sample was sampled three times in parallel.

[2] = system: weaned piglets; test: Breeding test: production performance of weaned piglets; format: in vivo, Duroc×Landrace×Yorkshire cross-bred weaned piglets; details: weaned piglets, 1000 ppm metal ion salt in basal daily ration, 40 days
From the text: From 95 litters of 28±2 days old Duroc×Landrace×Yorkshire cross-bred weaned piglets, 360 clinically healthy piglets with similar body weights were selected as test pigs, which were randomly divided into 12 groups, with 3 replications per group and 10 pigs (half of male and female) per replication. The piglets were attracted to the food trough at the age of 7 days, and the hog house for 28-day-old weaned pigs has a cement floor, steel fence, good ventilation, and suitable temperature. The pigpens and utensils were sterilized before the test.
During the test period, the test pigs were free-stall housed in the same pigpen under the same feeding and management conditions, and were free to drink water and eat feed. The hog house was cleaned once a day, and the floor is washed once every three days to maintain clean and hygienic conditions. The test pigs were fed three times a day. The test groups include control and test groups. Group I is the control group, in which only the basal daily ration was fed to the piglets. […] 1000 ppm of a the aspartic acid derivative metal ion salt was added into the basal daily ration for the piglets in the groups VIII-XII, as shown in Table 2. No other antioxidant ingredients or growth promoters were added for the test groups during the entire feeding process. The test period was 40 days.
The test pigs were weighed during 7:00 to 9:00 in the morning of Day 0 and Day 40 after the start of the test. During the test period, the feed intake and health status of the piglets were observed every day, the remaining daily ration was weighed, the feed consumption was recorded, and the average daily feed intake (ADFI, g/d*each pig), the average daily gain (ADG, g/d*each pig), and the feed conversion ratio (FCR) were calculated. Calculation formulas are as follows: […]
The test data was statistically analyzed using SPSS18 software. First, a one-way analysis of variance (ANOVA) was performed on the data. If the difference between treatments is significant, Duncan's method was used for multiple comparisons, and the significance level was 0.05.

Structure (SMILES) | Detection result of the content of test sample (%) Day 5 ([1]; 2% premix) [%] | Detection result of the content of test sample (%) Day 10 ([1]; 2% premix) [%] | Detection result of the content of test sample (%) Day 5 ([1]; Raw material) [%] | Detection result of the content of test sample (%) Day 10 ([1]; Raw material) [%] | ADFI (g/d*each pig) [2] | ADG (g/d*each pig) [2] | FCR [2]
NC(=O)NC(CC(=O)[O-])C(=O)[O-].[Na+].[Na+] (racemic) [Compound 3, Sodium N-carbamoyl-DL-aspartate] | 99.33 | 99.21 | 103.02 | 103.53 | 388 ± 11^bc g/d*each pig | 182 ± 2^d g/d*each pig | 2.13 ± 0.04
NC(=O)NC(CC(=O)[O-])C(=O)[O-].[Cu+2] (racemic) [Compound 6, Copper N-carbamoyl-DL-aspartate] | 98.28 | 97.94 | 99.91 | 98.31 | 329 ± 13^a g/d*each pig | 156 ± 1^c g/d*each pig | 2.11 ± 0.07
NC(=O)NC(CC(=O)[O-])C(=O)[O-].[Ca+2] (racemic) [Compound 4, Calcium N-carbamoyl-DL-aspartate] | 98.93 | 97.99 | 101.54 | 101.87 | 333 ± 8^a g/d*each pig | 157 ± 0^c g/d*each pig | 2.13 ± 0.05
NC(=O)NC(CC(=O)[O-])C(=O)[O-].[Fe+2] (racemic) [Compound 7, Iron N-carbamoyl-DL-aspartate] | 96.74 | 94.98 | 97.63 | 96.01 | 330 ± 11^a g/d*each pig | 153 ± 1^bc g/d*each pig | 2.15 ± 0.06
NC(=O)NC(CC(=O)[O-])C(=O)[O-].[Zn+2] (racemic) [Compound 5, Zinc N-carbamoyl-DL-aspartate] | 96.89 | 96.36 | 99.76 | 98.47 | 418 ± 19^c g/d*each pig | 198 ± 3^6 g/d*each pig | 2.11 ± 0.07

— US12478081B2, “Application of aspartic acid derivative in preparing animal feed additive” (ANIPHA TECHNOLOGIES PTY LTD, priority 2018, dated 2025)
